Measurements taken from patent publication US6962912B2, “Substituted pyrazolo[4,3-e]diazepines, pharmaceutical compositions containing them, use as medicinal products and processes for preparing them” (Warner-Lambert LLC, priority 2000, dated 2005).

What was measured:
PDE4 = experiment: Inhibition of PDE4 (cytosolic enzyme preparation from U937 line), compared with rolipram; format: biochemical, human; settings: PDE4 enzyme preparation obtained from the U937 line

Row | Structure (SMILES) | melting point | IC50 (PDE4)
1 | CCn1nc(C)c2c1C(=O)NCC(c1ccc3ccccc3c1)=N2 [Example 8, 1-Ethyl-3-methyl-5-naphth-2-yl-6,7-dihydro-1H-pyrazolo[4,3-e][1,4]diazepin-8-one] | 193 °C | 210 nM
2 | CCn1nc(C)c2c1C(=O)NCC(c1sccc1Cl)=N2 [Example 9, 5-(3-Chlorothien-2-yl)-1-ethyl-3-methyl-6,7-dihydro-1H-pyrazolo[4,3-e][1,4]diazepin-8-one] | 213 °C | 150 nM
3 | CCn1nc(C)c2c1C(=O)NCC(c1ccc(Cl)cc1)=N2 [Example 11, 5-(4-Chlorophenyl)-1-ethyl-3-methyl-6,7-dihydro-1H-pyrazolo[4,3-e][1,4]diazepin-8-one] | 215 °C | 120 nM
4 | CCn1nc(C)c2c1C(=O)NCC(c1ccc(F)cc1)=N2 [Example 13, 1-Ethyl-5-(4-fluorophenyl)-3-methyl-6,7-dihydro-1H-pyrazolo[4,3-e][1,4]diazepin-8-one] | 174 °C | 130 nM
5 | CCn1nc(C)c2c1C(=O)NCC(c1cccc(Br)c1)=N2 [Example 14, 5-(3-Bromophenyl)-1-ethyl-3-methyl-6,7-dihydro-1H-pyrazolo-[4,3-e][1,4]diazepin-8-one] | 173 °C | 81 nM
6 | CCn1nc(C)c2c1C(=O)NCC(c1cccc(OC)c1)=N2 [Example 18, 1-Ethyl-5-(3-methoxyphenyl)-3-methyl-6,7-dihydro-1H-pyrazolo[4,3-e][1,4]diazepin-8-one] | 120 °C | 100 nM
7 | CCn1nc(C)c2c1C(=O)NCC(c1ccccc1N)=N2 [Example 19, 5-(2-Aminophenyl)-1-ethyl-3-methyl-6,7-dihydro-1H-pyrazolo[4,3-e][1,4]diazepin-8-one] | 156 °C | 87 nM
8 | CCn1nc(C)c2c1C(=O)NCC(c1ccccc1OC)=N2 [Example 20, 1-Ethyl-5-(2-methoxyphenyl)-3-methyl-6,7-dihydro-1H-pyrazolo[4,3-e][1,4]diazepin-8-one] | 214 °C | 99 nM
9 | CCCn1nc(C)c2c1C(=S)NCC(c1ccccc1)=N2 [Example 22, 3-Methyl-5-phenyl-1-propyl-6,7-dihydro-1H-pyrazolo[4,3-e][1,4]diazepin-8-thione] | 156 °C | 28 nM
10 | CCn1nc(C(C)C)c2c1C(=O)NCC(c1ccc(N)cc1)=N2 [Example 27, 5-(4-Aminophenyl)-1-ethyl-3-isopropyl-6,7-dihydro-1H-pyrazolo[4,3-e][1,4]diazepin-8-one] | 191 °C | 3.8 nM
11 | CCCn1nc(C)c2c1C(=O)NCC(c1ccc(N)cc1)=N2 [Example 29, 5-(4-Aminophenyl)-3-methyl-1-propyl-6,7-dihydro-1H-pyrazolo[4,3-e][1,4]diazepin-8-one] | 225 °C | 330 nM
12 | CCn1nc(C)c2c1C(=O)NCC(C(C)(C)C)=N2 [Example 33, 5-tert-Butyl-1-ethyl-3-methyl-6,7-dihydro-1H-pyrazolo[4,3-e][1,4]diazepin-8-one] | 120 °C | 110 nM
13 | CCCCc1nn(CC)c2c1N=C(c1ccccc1)CNC2=S [Example 52, 3-Butyl-1-ethyl-5-phenyl-6,7-dihydro-1H-pyrazolo[4,3-e][1,4]diazepin-8-thione] | 151.5 °C | 0.65 nM
14 | CCn1nc(C)c2c1C(=O)NCC(c1cccnc1)=N2 [Example 53, 1-Ethyl-3-methyl-5-pyrid-3-yl-6,7-dihydro-1H-pyrazolo[4,3-e][1,4]diazepin-8-one] | 178 °C | 260 nM
15 | CCn1nc(C)c2c1C(=O)NCC(c1ccccn1)=N2 [Example 54, 1-Ethyl-3-methyl-5-pyrid-2-yl-6,7-dihydro-1H-pyrazolo[4,3-e][1,4]diazepin-8-one] | 153 °C | 240 nM
16 | CCn1nc(C(C)(C)C)c2c1C(=NC#N)NCC(c1ccccc1)=N2 [Example 57, 3-tert-Butyl-1-ethyl-5-phenyl-6,7-dihydro-1H-pyrazolo[4,3-e][1,4]diazepin-8-ylidene-cyanamide] | 250 °C | 0.13 nM
17 | CCn1nc(C)c2c1C(=O)NCC(c1ccc(C(F)(F)F)cc1)=N2 [Example 60, 1-Ethyl-3-methyl-5-(4-trifluoromethylphenyl)-6,7-dihydro-1H-pyrazolo[4,3-e][1,4]diazepin-8-one] | 195 °C | 580 nM
18 | CCCn1nc(C(C)C)c2c1C(=S)NCC(c1ccc(C)cc1)=N2 [Example 63, 3-Isopropyl-1-propyl-5-p-tolyl-6,7-dihydro-1H-pyrazolo[4,3-e][1,4]diazepin-8-thione] | 162.9 °C | 5 nM

Row | Structure (SMILES) | melting point | IC50 (PDE4)
19 | CCCn1nc(C(C)(C)C)c2c1C(=S)NCC(C(C)(C)C)=N2 [Example 64, 3,5-Di-tert-butyl-1-propyl-6,7-dihydro-1H-pyrazolo[4,3-e][1,4]diazepin-8-thione] | 205 °C | 4.6 nM
20 | CCCn1nc(C(C)C)c2c1C(=S)NCC(C(C)(C)C)=N2 [Example 65, 5-tert-Butyl-3-isopropyl-1-propyl-6,7-dihydro-1H-pyrazolo[4,3-e][1,4]diazepin-8-thione] | 165 °C | 1.5 nM
21 | CCn1nc(C(C)C)c2c1C(=S)NCC(c1ccc(C)cc1)=N2 [Example 66, 1-Ethyl-3-isopropyl-5-p-tolyl-6,7-dihydro-1H-pyrazolo[4,3-e][1,4]diazepin-8-thione] | 178 °C | 0.63 nM
22 | CCn1nc(C(C)C)c2c1C(=S)NCC(C(C)(C)C)=N2 [Example 67, 5-tert-Butyl-1-ethyl-3-isopropyl-6,7-dihydro-1H-pyrazolo[4,3-e][1,4]diazepin-8-thione] | 218 °C | 1 nM
23 | CCn1nc(C(C)C)c2c1C(=NC#N)NCC(C(C)(C)C)=N2 [Example 80, 5-tert-Butyl-1-ethyl-3-isopropyl-6,7-dihydro-1H-pyrazolo-[4,3-e][1,4]diazepin-8-ylidenecyanamide] | 243 °C | 0.22 nM
24 | CCn1nc(C(C)C)c2c1C(=NC#N)NCC(c1ccc(C)cc1)=N2 [Example 81, 1-Ethyl-3-isopropyl-5-p-tolyl-6,7-dihydro-1H-pyrazolo-[4,3-e][1,4]diazepin-8-ylidenecyanamide] | 245 °C | 0.54 nM
25 | CCn1nc(C(C)C)c2c1C(=O)NCC(c1ccc(OC)cc1)=N2 [Example 82, 1-Ethyl-3-isopropyl-5-(4-methoxyphenyl)-6,7-dihydro-1H-pyrazolo[4,3-e][1,4]diazepin-8-one] | 150 °C | 62 nM
26 | CCn1nc(C)c2c1C(=NC#N)NCC(c1ccc(OC)cc1)=N2 [Example 84, 1-Ethyl-3-methyl-5-(4-methoxyphenyl)-6,7-dihydro-1H-pyrazolo[4,3-e][1,4]diazepin-8-ylidenecyanamide] | 265 °C | 60 nM
27 | CCCn1nc(C(C)C)c2c1C(=O)NCC(c1ccc(OC)cc1)=N2 [Example 85, 3-Isopropyl-5-(4-methoxyphenyl)-1-propyl-6,7-dihydro-1H-pyrazolo[4,3-e][1,4]diazepin-8-one] | 142 °C | 200 nM
28 | CCn1nc(C(C)(C)C)c2c1C(=O)NCC(c1ccc(OC)cc1)=N2 [Example 86, 3-tert-Butyl-1-ethyl-5-(4-methoxyphenyl)-6,7-dihydro-1H-pyrazolo[4,3-e][1,4]diazepin-8-one] | 180 °C | 310 nM
29 | CCCn1nc(C(C)(C)C)c2c1C(=O)NCC(c1ccc(OC)cc1)=N2 [Example 87, 3-tert-Butyl-5-(4-methoxyphenyl)-1-propyl-6,7-dihydro-1H-pyrazolo[4,3-e][1,4]diazepin-8-one] | 167 °C | 41 nM
30 | CCn1nc(C)c2c1C(=NC#N)NCC(c1ccc(O)cc1)=N2 [Example 88, 1-Ethyl-3-methyl-5-(4-hydroxyphenyl)-6,7-dihydro-1H-pyrazolo[4,3-e][1,4]diazepin-8-ylidenecyanamide] | 300 °C | 2.1 nM
31 | CCn1nc(C)c2c1C(=O)NCC(c1cc(OC)c(OC)c(OC)c1)=N2 [Example 91, 1-Ethyl-3-methyl-5-(3,4,5-trimethoxyphenyl)-6,7-dihydro-1H-pyrazolo[4,3-e][1,4]diazepin-8-one] | 208 °C | 900 nM
32 | CCn1nc(C)c2c1C(=O)NCC(c1cccc(O)c1)=N2 [Example 92, 1-Ethyl-5-(3-hydroxyphenyl)-3-methyl-6,7-dihydro-1H-pyrazolo[4,3-e][1,4]diazepin-8-one] | 204 °C | 92 nM
33 | CCn1nc(C)c2c1C(=O)NCC(c1ccccc1O)=N2 [Example 93, 1-Ethyl-5-(2-hydroxyphenyl)-3-methyl-6,7-dihydro-1H-pyrazolo[4,3-e][1,4]diazepin-8-one] | 220 °C | 7.4 nM
34 | CCn1nc(C(C)C)c2c1C(=O)NCC(c1ccc(O)cc1)=N2 [Example 94, 1-Ethyl-5-(4-hydroxyphenyl)-3-isopropyl-6,7-dihydro-1H-pyrazolo[4,3-e][1,4]diazepin-8-one] | 230 °C | 2.1 nM
35 | CCCn1nc(C(C)C)c2c1C(=O)NCC(c1ccc(O)cc1)=N2 [Example 95, 5-(4-Hydroxyphenyl)-3-isopropyl-1-propyl-6,7-dihydro-1H-pyrazolo[4,3-e][1,4]diazepin-8-one] | 230 °C | 15 nM
36 | CCn1nc(C(C)(C)C)c2c1C(=O)NCC(c1ccc(O)cc1)=N2 [Example 96, 3-tert-Butyl-1-ethyl-5-(4-hydroxyphenyl)-6,7-dihydro-1H-pyrazolo[4,3-e][1,4]diazepin-8-one] | 264 °C | 4.9 nM
